Results on 11 compounds are retold here after patent publication US9850283B2, “Macrocyclic inhibitors of the PD-1/PD-L1 and CD80(B7-1)/PD-L1 protein/protein interactions” (BRISTOL-MYERS SQUIBB COMPANY, priority 2013, dated 2017).

Assay [1] addresses T1, LK35.2-hPD-L1 cells / PE-labeled PD-1-Ig (Homo sapiens, UniProt Q9NZQ7).
T1 construct: expressed in transfected cells; host or cells: LK35.2 mouse B cell line
Description: LK35.2-hPD-L1 cell binding high-content screening assay. Format: cell-based. The conditions noted are these: cluster symbol, read-out: CBA IC50 cluster. The method in brief:
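Fluorescent PD-1-Ig binding to PD-L1-expressing LK35.2 cells, imaged after washing. Conditions: 1 nM PE-PD-1-Ig, 37 °C, 1 h, RPMI with 10% fetal calf serum.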

Assay [2] addresses T2, Human PD-L1/PD-1 (Homo sapiens, UniProt Q9NZQ7).
T2 construct: made in house; host or cells: HEK293T
Description: HTRF PD-1-Ig/PD-L1-His binding assay (human PD-L1). The conditions noted are these: cluster symbol; read-out: HTRF IC50 cluster. A digest of the protocol:
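Steps: truncated PD-1-Ig and PD-L1-His fusions are incubated in dPBS containing 0.1% (w/v) BSA and 0.05% (v/v) Tween-20. Detection antibodies are then added (Eu cryptate anti-Ig at 1 nM final, APC anti-His at 20 nM final), and time-resolved FRET is measured.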
(In general: Time-resolved FRET reads energy transfer from a long-lived donor to a nearby acceptor.)

Setting [3] is: cell line of CBA not given (LK35.2-hPD-L1 or 293T-hPD-L1).
Setting [4] is: cell binding assay, cell line not given.

Like-named read-outs stand apart in the source and are kept apart here. Starred links: 1 amine or outer side, 2 acyl side, 3 side chain; linkers in the order of their positions; H or OH if unused. Positions of bridges follow the written chain, without caps; N, C: chain ends. Non-standard residues stand in square brackets, D forms with d. Residues, ends and D or L forms follow the SMILES beside them. ξ: configuration not given here. Phe(3,4,5-F3) = N[C@@H](Cc1cc(F)c(F)c(F)c1)C(=O)O; Phe(4-CH2NH2) = NCc1ccc(C[C@H](N)C(=O)O)cc1; X1 = C[C@@H]1C[C@H](C(=O)[*:2])N([*:1])C1; Phe(4-Me) = Cc1ccc(C[C@H](N)C(=O)O)cc1; Pro(4R-NH2) = N[C@H]1CN[C@H](C(=O)O)C1; d(cisHyp) = O=C(O)[C@H]1C[C@@H](O)CN1; Bta = N[C@@H](Cc1csc2ccccc12)C(=O)O; Hyp = O=C(O)[C@@H]1C[C@@H](O)CN1; NMeF = CN[C@@H](Cc1ccccc1)C(=O)O; 3Pal = N[C@@H](Cc1cccnc1)C(=O)O; dNMeE = CN[C@H](CCC(=O)O)C(=O)O; NMeNle = CCCC[C@H](NC)C(=O)O; NMeA = CN[C@@H](C)C(=O)O; Dab = NCC[C@H](N)C(=O)O; Dap = NC[C@H](N)C(=O)O; ξC = NC(CS)C(=O)O; Sar = CNCC(=O)O

T2 sequence (Q9NZQ7 with tags, fused parts or gaps): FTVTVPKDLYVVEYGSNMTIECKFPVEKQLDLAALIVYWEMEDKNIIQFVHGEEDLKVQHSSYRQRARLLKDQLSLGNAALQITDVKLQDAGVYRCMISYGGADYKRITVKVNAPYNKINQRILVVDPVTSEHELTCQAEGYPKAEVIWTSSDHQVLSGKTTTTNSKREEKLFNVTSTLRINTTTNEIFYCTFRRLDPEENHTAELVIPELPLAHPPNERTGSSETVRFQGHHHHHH
T1 sequence (Q9NZQ7 19-290): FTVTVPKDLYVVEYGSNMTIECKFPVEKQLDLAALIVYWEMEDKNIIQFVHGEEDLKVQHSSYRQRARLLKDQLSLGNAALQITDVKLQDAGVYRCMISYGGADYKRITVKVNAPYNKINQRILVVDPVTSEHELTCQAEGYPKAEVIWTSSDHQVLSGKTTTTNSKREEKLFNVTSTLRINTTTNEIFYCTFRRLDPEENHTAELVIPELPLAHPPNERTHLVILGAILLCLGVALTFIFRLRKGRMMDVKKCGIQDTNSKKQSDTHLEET

In the case of `CCCC[C@H]1C(=O)N2C[C@H](O)C[C@@H]2C(=O)N2C[C@H](N)C[C@H]2C(=O)N[C@@H](C(C)C)C(=O)N(C)[C@@H](Cc2ccccc2)C(=O)N[C@@H](Cc2ccc(O)cc2)C(=O)N(C)[C@H](CCC(=O)O)C(=O)N[C@@H](Cc2c[nH]c3ccccc23)C(=O)N[C@@H](Cc2ccc(O)cc2)C(=O)N[C@@H](CC(C)C)C(=O)N[C@H](C(=O)NCC(N)=O)CSCC(=O)N[C@@H](Cc2cc(F)c(F)c(F)c2)C(=O)N(C)[C@@H](Cc2ccccc2)C(=O)N1C` [Example 3197] ({CH2CO}-[Phe(3,4,5-F3)][NMeF][NMeNle][d(cisHyp)][Pro(4R-NH2)]V[NMeF]Y[dNMeE]WYLCG-NH2; thioether N-13), the IC50 in assay [1] (setting [3]) is 0.158 to 4.71 nM; in assay [2], 0.385 to 6.74 nM.

Consider `CCCC[C@H]1C(=O)N(C)CC(=O)N[C@@H](CC(=O)O)C(=O)N[C@@H](C(C)C)C(=O)N(C)[C@@H](Cc2ccccc2)C(=O)N[C@@H](Cc2ccc(O)cc2)C(=O)N(C)CC(=O)N[C@@H](Cc2c[nH]c3ccccc23)C(=O)N[C@@H](Cc2ccc(O)cc2)C(=O)N[C@@H](CC(C)C)C(=O)N[C@H](C(=O)NCC(N)=O)CSCC(=O)N[C@@H](Cc2ccc(CN)cc2)C(=O)N(C)[C@@H](Cc2ccccc2)C(=O)N1C` [Example 3063] ({CH2CO}-[Phe(4-CH2NH2)][NMeF][NMeNle][Sar]DV[NMeF]Y[Sar]WYLCG-NH2; thioether N-13), for which the figures for the IC50 in assay [1] (setting [3]) and in assay [2] were over 74.3 nM and over 30.5 nM, respectively.

As to `CCCC[C@H]1C(=O)N(C)[C@@H](CCCC)C(=O)N[C@@H](CCCNC(=N)N)C(=O)NC(C(=O)N[C@@H](CO)C(N)=O)CSCC(=O)N[C@@H](Cc2ccc(O)cc2)C(=O)N(C)[C@@H](C)C(=O)N[C@@H](CC(N)=O)C(=O)N2CCC[C@H]2C(=O)N[C@@H](Cc2cnc[nH]2)C(=O)N[C@@H](CO)C(=O)N2C[C@H](O)C[C@H]2C(=O)N[C@@H](Cc2c[nH]c3ccccc23)C(=O)N[C@@H](CO)C(=O)N[C@@H](Cc2csc3ccccc23)C(=O)N1C` (stereo partly shown) [Example 9078] ({CH2CO}-Y[NMeA]NPHS[Hyp]WS[Bta][NMeNle][NMeNle]R[ξC]S-NH2; thioether N-14), the IC50 was in the range of 0.158 to 4.71 nM in assay [1] (setting [4]) and 6.76 to 30.3 nM in assay [2].

As for `CCCC[C@H]1C(=O)N2C[C@H](C)C[C@@H]2C(=O)N[C@@H](CC(=O)O)C(=O)N[C@@H](C(C)C)C(=O)N(C)[C@@H](Cc2ccccc2)C(=O)N[C@@H](Cc2ccc(O)cc2)C(=O)N(C)CC(=O)N[C@@H](Cc2c[nH]c3ccccc23)C(=O)N[C@@H](Cc2ccc(O)cc2)C(=O)N[C@@H](CC(C)C)C(=O)N[C@H](C(=O)NCC(N)=O)CSCC(=O)N[C@@H](Cc2ccccc2)C(=O)N(C)[C@@H](Cc2ccccc2)C(=O)N1C` [Example 3580] ({CH2CO}-F[NMeF][NMeNle][X1]DV[NMeF]Y[Sar]WYLCG-NH2; thioether N-13), the IC50 was in the range of 0.158 to 4.71 nM in assay [1] (setting [4]) and 0.385 to 6.74 nM in assay [2].

Consider `CCCC[C@H]1C(=O)N(C)[C@@H](CCCC)C(=O)N[C@@H](CCCNC(=N)N)C(=O)N[C@H](C(=O)NCC(N)=O)CSCC(=O)N[C@@H](Cc2cccnc2)C(=O)N(C)[C@@H](C)C(=O)N[C@@H](CC(N)=O)C(=O)N2CCC[C@H]2C(=O)N[C@@H](Cc2c[nH]cn2)C(=O)N[C@@H](CC(C)C)C(=O)N2C[C@H](O)C[C@H]2C(=O)N[C@@H](Cc2c[nH]c3ccccc23)C(=O)N[C@@H](CO)C(=O)N[C@@H](Cc2c[nH]c3ccccc23)C(=O)N1C` [Example 7024] ({CH2CO}-[3Pal][NMeA]NPHL[Hyp]WSW[NMeNle][NMeNle]RCG-NH2; thioether N-14), for which the IC50 in assay [1] (setting [4]) lay in the range of 4.78 to 72.9 nM; in assay [2], 6.76 to 30.3 nM.

Consider `CCCC[C@H]1C(=O)N(C)[C@@H](CCCC)C(=O)N[C@@H](CCCNC(=N)N)C(=O)N[C@H](C(=O)NCC(N)=O)CSCC(=O)N[C@@H](Cc2ccccc2)C(=O)N(C)[C@@H](C)C(=O)N[C@@H](CC(N)=O)C(=O)N2CCC[C@H]2C(=O)N[C@@H](Cc2cnc[nH]2)C(=O)N[C@@H](CCCCN)C(=O)N(C)CC(=O)N[C@@H](Cc2c[nH]c3ccccc23)C(=O)N[C@@H](CO)C(=O)N[C@@H](Cc2c[nH]c3ccccc23)C(=O)N1C` [Example 6004] ({CH2CO}-F[NMeA]NPHK[Sar]WSW[NMeNle][NMeNle]RCG-NH2; thioether N-14), for which the IC50 was in the range of 4.78 to 72.9 nM in assay [1] (setting [4]) and 6.76 to 30.3 nM in assay [2].

Turning to `CCCC[C@H]1C(=O)N(C)[C@@H](CCCC)C(=O)N[C@@H](CN)C(=O)N[C@H](C(=O)NCC(N)=O)CSCC(=O)N[C@@H](Cc2ccc(O)cc2)C(=O)N(C)[C@@H](C)C(=O)N[C@@H](CC(N)=O)C(=O)N2CCC[C@H]2C(=O)N[C@@H](CN)C(=O)N[C@@H](CC(C)C)C(=O)N2C[C@H](O)C[C@H]2C(=O)N[C@@H](Cc2c[nH]c3ccccc23)C(=O)N[C@@H](CCN)C(=O)N[C@@H](Cc2c[nH]c3ccccc23)C(=O)N1C` [Example 5059] ({CH2CO}-Y[NMeA]NP[Dap]L[Hyp]W[Dab]W[NMeNle][NMeNle][Dap]CG-NH2; thioether N-14), the IC50 was 4.78 to 72.9 nM in assay [1] (setting [4]) and 0.385 to 6.74 nM in assay [2].

With `CCCC[C@H]1C(=O)N2C[C@H](O)C[C@@H]2C(=O)N[C@@H](CC(=O)O)C(=O)N[C@@H](C(C)C)C(=O)N(C)[C@@H](Cc2ccccc2)C(=O)N[C@@H](Cc2ccc(O)cc2)C(=O)N(C)CC(=O)N[C@@H](Cc2c[nH]c3ccccc23)C(=O)N[C@@H](Cc2ccc(O)cc2)C(=O)N[C@@H](CC(C)C)C(=O)N[C@H](C(=O)NCC(N)=O)CSCC(=O)N[C@@H](Cc2ccccc2)C(=O)N(C)[C@@H](Cc2ccccc2)C(=O)N1C` [Example 3575] ({CH2CO}-F[NMeF][NMeNle][d(cisHyp)]DV[NMeF]Y[Sar]WYLCG-NH2; thioether N-13), the results for the IC50 in assay [1] (setting [4]) and in assay [2] were 0.158 to 4.71 nM and 0.385 to 6.74 nM, respectively.

On to `CCCC[C@H]1C(=O)N(C)[C@@H](CCCC)C(=O)N[C@@H](CCCNC(=N)N)C(=O)N[C@H](C(=O)NCC(N)=O)CSCC(=O)N[C@@H](Cc2ccc(O)cc2)C(=O)N(C)[C@@H](C)C(=O)N[C@@H](CC(N)=O)C(=O)N2CCC[C@H]2C(=O)N[C@@H](Cc2cnc[nH]2)C(=O)N[C@@H](CC(C)C)C(=O)N2CCC[C@H]2C(=O)N[C@@H](Cc2c[nH]c3ccccc23)C(=O)N[C@@H](CO)C(=O)N[C@@H](Cc2csc3ccccc23)C(=O)N1C` [Example 1014] ({CH2CO}-Y[NMeA]NPHLPWS[Bta][NMeNle][NMeNle]RCG-NH2; thioether N-14), for which the IC50 fell in the range of 0.158 to 4.71 nM in assay [1] (setting [3]) and 0.385 to 6.74 nM in assay [2].

For the compound `CCCC[C@H]1C(=O)N(C)[C@@H](CCCC)C(=O)N[C@@H](CN)C(=O)N[C@H](C(=O)NCC(N)=O)CSCC(=O)N[C@@H](Cc2ccc(O)cc2)C(=O)N(C)[C@@H](C)C(=O)N[C@@H](CC(=O)O)C(=O)N2CCC[C@H]2C(=O)N[C@@H](CN)C(=O)N[C@@H](CCC(N)=O)C(=O)N2C[C@H](O)C[C@H]2C(=O)N[C@@H](Cc2c[nH]c3ccccc23)C(=O)N[C@@H](CCN)C(=O)N[C@@H](Cc2csc3ccccc23)C(=O)N1C` [Example 1223] ({CH2CO}-Y[NMeA]DP[Dap]Q[Hyp]W[Dab][Bta][NMeNle][NMeNle][Dap]CG-NH2; thioether N-14), the IC50 is 0.158 to 4.71 nM in assay [1] (setting [3]) and 0.385 to 6.74 nM in assay [2].

For `CCCC[C@H]1C(=O)N(C)CC(=O)N[C@@H](CC(=O)O)C(=O)N[C@@H](C(C)C)C(=O)N(C)[C@@H](Cc2ccccc2)C(=O)N[C@@H](Cc2ccc(O)cc2)C(=O)N(C)CC(=O)N[C@@H](Cc2c[nH]c3ccccc23)C(=O)N[C@@H](Cc2ccc(O)cc2)C(=O)N[C@@H](Cc2ccc(C)cc2)C(=O)N[C@H](C(=O)NCC(N)=O)CSCC(=O)N[C@@H](Cc2ccccc2)C(=O)N(C)[C@@H](Cc2ccccc2)C(=O)N1C` [Example 3107] ({CH2CO}-F[NMeF][NMeNle][Sar]DV[NMeF]Y[Sar]WY[Phe(4-Me)]CG-NH2; thioether N-13), the IC50 was 4.78 to 72.9 nM in assay [1] (setting [3]) and 6.76 to 30.3 nM in assay [2].

The term IC50 denotes the concentration that gives 50% inhibition.
